# Values of other authors, collected in patent US6375990B1, “Method and devices for transdermal delivery of lithium” (Emory University, priority 1997, dated 2002).
# How the values were obtained:
# [1] = patients who do not respond to antidepressant monotherapy
# [2] = not given; remark: listed apart in the source
smiles,measurement,setting,value
"[Li+] [Li^+, Lithium]",final volume of distribution (Vd),approximates total body water,0.7 to 0.9 L/kg
same,time to maximal plasma Li+ concentration (Tmax),"immediate release formulations, following an oral dose",1 to 4 h
same,binding to blood proteins,in vivo,does not bind to blood proteins
same,biotransformation / metabolic conversion,in vivo,not biotransformed
same,"elimination through sweat, saliva, and feces",in vivo,less than 5 % of an oral dose
same,excretion through the kidneys,in vivo,> 90%
same,filtered load reabsorbed in the renal proximal tubules,in vivo,Eighty
same,half-life,in vivo,18 to 36 h
same,absorption from the gastrointestinal tract,oral administration,readily and nearly completely absorbed
same,antidepressant non-responders converted to responders,[1],approximately 50 % of patients
same,plasma concentration associated with life-threatening intoxication,[2]; plasma,exceeding 3.5 mEq/L
same,serum concentration above which adverse effects increase greatly,[2]; serum,exceed 1.5 mEq/L
